Measured values published in patent US20210101881A1 (Ancureall Pharmaceutical (Shanghai) Co., Ltd., priority 2018, published 2021).
Read-outs that look alike come from different tables or passages of the source.

Tested on: MOLM13 cells
Experiment: Growth inhibition of CDK9-positive cell line MOLM13 in vitro (CCK8/MTT assay)
Assay type: cell-based, human
[1] = Homo sapiens, MOLM-13, MOLM13 cells, cultured 3 to 6 days, CCK8, read-out: IC50 of the compound for inhibiting cell growth, MOLM13 cells

| Structure (SMILES) | IC50 [1] [nM] | also measured |
| --- | --- | --- |
| CNC(=O)c1cn(-c2ccnc(Nc3ccc(C4CCN(C)CC4)cc3)n2)c2ccccc12 [Compound 104, 1-{2-[4-(1-methyl-piperidin-4-yl)-phenylamino]-pyrimidin-4-yl}-1H-indole-3-carboxmethylamide] | 10 to 100 | – |
| CNC(=O)c1cn(-c2ccnc(Nc3ccc(C4CCNCC4)cc3)n2)c2ccccc12 [Compound 105, 1-[2-(4-piperidin-4-yl-phenylamino)-pyrimidin-4-yl]-1H-indole-3-carboxmethylamide] | 10 to 100 | – |
| CNC(=O)c1cn(-c2ccnc(Nc3cccc(N4CCN(C)CC4)c3)n2)c2ccccc12 [Compound 106, 1-{2-[3-(4-methyl-piperazin-1-yl)-phenylamino]-pyrimidin-4-yl}-1H-indole-3-carboxmethylamide] | – | IC50 (MOLM13 cells, cultured 3 to 6 days, CCK8, read-out: IC50 of the compound for inhibiting cell growth, MOLM13 cells): 10 to 100 nM |
| CNC(=O)c1cn(-c2ccnc(Nc3ccc(S(N)(=O)=O)cc3)n2)c2ccccc12 [Compound 108, 1-[2-(4-sulfamoyl-phenylamino)-pyrimidin-4-yl]-1H-indole-3-carboxmethylamide] | > 1000 | – |
| CN(C)CCN(C)c1cccc(Nc2nccc(-n3cc(C(N)=O)c4ccccc43)n2)c1 [Compound 110, 1-(2-{3-[(2-dimethylamino-ethyl)-methyl-amino]-phenylamino}-pyrimidin-4-yl)-1H-indole-3-carboxamide] | 1 to 10 | – |
| CN1CCN(c2cccc(Nc3ncc(Cl)c(-n4cc(C(N)=O)c5ccccc54)n3)c2)CC1 [Compound 118, 1-{5-chloro-2-[3-(4-methyl-piperazin-1-yl)-phenylamino]-pyrimidin-4-yl}-1H-indole-3-carboxamide] | – | IC50 (Homo sapiens, MOLM-13, read-out: IC50 of the compound for inhibiting cell growth, MOLM13 cells): 1 to 10 nM |
| CN1CCN(c2cc(Nc3ncc(Cl)c(-n4cc(C(N)=O)c5ccccc54)n3)ccc2F)CC1 [Compound 119, 1-{5-chloro-2-[4-fluoro-3-(4-methyl-piperazin-1-yl)-phenylamino]-pyrimidin-4-yl}-1H-indole-3-carboxamide] | 10 to 100 | – |
| CN1CCN(c2cc(Nc3ncc(Cl)c(-n4cc(C(N)=O)c5ccccc54)n3)ccc2Cl)CC1 [Compound 120, 1-{5-chloro-2-[4-chloro-3-(4-methyl-piperazin-1-yl)-phenylamino]-pyrimidin-4-yl}-1H-indole-3-carboxamide] | 10 to 100 | – |
| Cc1cnc(Nc2cccc(N3CCN(C)CC3)c2)nc1-n1cc(C(N)=O)c2ccccc21 [Compound 124, 1-{5-methyl-2-[3-(4-methyl-piperazin-1-yl)-phenylamino]-pyrimidin-4-yl}-1H-indole-3-carboxamide] | 1 to 10 | – |
| COCCN1CCN(c2cccc(Nc3nccc(-n4cc(C(N)=O)c5ccccc54)n3)c2)CC1 [Compound 126, 1-(2-{3-[4-(2-methoxy-ethyl)-piperazin-1-yl]-phenylamino]-pyrimidin-4-yl}-1H-indole-3-carboxamide] | 1 to 10 | – |
| C=CC(=O)N1CCN(c2cccc(Nc3nccc(-n4cc(C(N)=O)c5ccccc54)n3)c2)CC1 [Compound 127, 1-{2-[3-(4-acryloyl-piperazin-1-yl)-phenylamino]-pyrimidin-4-yl}-1H-indole-3-carboxamide] | 10 to 100 | – |
| CCC(=O)N1CCN(c2cccc(Nc3nccc(-n4cc(C(N)=O)c5ccccc54)n3)c2)CC1 [Compound 128, 1-{2-[3-(4-propionyl-piperazin-1-yl)-phenylamino]-pyrimidin-4-yl}-1H-indole-3-carboxamide] | 10 to 100 | – |
| CN(C)CCOc1cccc(Nc2nccc(-n3cc(C(N)=O)c4ccccc43)n2)c1 [Compound 129, 1-{2-[3-(2-dimethylamino-ethoxy)-phenylamino]-pyrimidin-4-yl}-1H-indole-3-carboxamide] | 10 to 100 | – |
| NC(=O)c1cn(-c2ccnc(Nc3ccccn3)n2)c2ccccc12 [Compound 130, 1-[2-(pyridin-2-ylamino)-pyrimidin-4-yl]-1H-indole-3-carboxamide] | > 1000 | – |
| Cc1cc(C)nc(Nc2nccc(-n3cc(C(N)=O)c4ccccc43)n2)c1 [Compound 132, 1-[2-(4,6-dimethyl-pyridin-2-ylamino)-pyrimidin-4-yl]-1H-indole-3-carboxamide] | > 1000 | – |
| NC(=O)c1cn(-c2ccnc(Nc3ccc(N4CCNCC4)cn3)n2)c2ccccc12 [Compound 133, 1-[2-(5-piperazin-1-yl-pyridin-2-ylamino)-pyrimidin-4-yl]-1H-indole-3-carboxamide] | > 1000 | – |
| NC(=O)c1cn(-c2ccnc(Nc3ccc(N4CCNCC4)cc3)n2)c2ncccc12 [Compound 135, 1-[2-(4-piperazin-1-yl-phenylamino)-pyrimidin-4-yl]-1H-pyrrolo[2,3-b]pyridine-3-carboxamide] | 100 to 1000 | – |
| NC(=O)c1nn(-c2ccnc(Nc3cccc(N4CCNCC4)c3)n2)c2ccccc12 [Compound 138, 1-[2-(3-piperazin-1-yl-phenylamino)-pyrimidin-4-yl]-1H-indazole-3-carboxamide] | 1 to 10 | – |
| NC(=O)c1cn(-c2nc(Nc3cccc(N4CCC(N5CCOCC5)CC4)c3)ncc2F)c2ccccc12 [Compound 139, 1-{5-fluoro-2-[3-(4-morpholin-4-yl-piperidin-1-yl)-phenylamino]-pyrimidin-4-yl}-1H-indole-3-carboxamide] | 1 to 10 | – |
| CCN1CCN(c2cccc(Nc3ncc(F)c(-n4cc(C(N)=O)c5ccccc54)n3)c2)CC1 [Compound 142, 1-{2-[3-(4-ethyl-piperazin-1-yl)-phenylamino]-5-fluoro-pyrimidin-4-yl}-1H-indole-3-carboxamide] | < 1 | – |
| CN1CCN(Cc2cccc(Nc3ncc(F)c(-n4cc(C(N)=O)c5ccccc54)n3)c2)CC1 [Compound 143, 1-{5-fluoro-2-[3-(4-methyl-piperazin-1-ylmethyl)-phenylamino]-pyrimidin-4-yl}-1H-indole-3-carboxamide] | 10 to 100 | – |

Continued, in another order:

| IC50 [1] [nM] | Structure (SMILES) | also measured |
| --- | --- | --- |
| > 1000 | CNC(=O)c1cn(-c2ccnc(Nc3ccc(N4CCNCC4)cc3Cl)n2)c2ccccc12 [Compound 102, 1-[2-(2-chloro-4-piperazin-1-yl-phenylamino)-pyrimidin-4-yl]-1H-indole-3-carboxmethylamide] | – |
| 100 to 1000 | CNC(=O)c1cn(-c2ccnc(Nc3ccc(N4CCNCC4)c(Cl)c3)n2)c2ccccc12 [Compound 103, 1-[2-(3-chloro-4-piperazin-1-yl-phenylamino)-pyrimidin-4-yl]-1H-indole-3-carboxmethylamide] | – |
| 10 to 100 | CNC(=O)c1cn(-c2ccnc(Nc3cccc(N4CCNCC4)c3)n2)c2ccccc12 [Compound 107, 1-[2-(3-piperazin-1-yl-phenylamino)-pyrimidin-4-yl]-1H-indole-3-carboxmethylamide] | – |
| 1 to 10 | NC(=O)c1cn(-c2ccnc(Nc3cccc(N4CCNCC4)c3)n2)c2ccccc12 [Compound 111, 1-[2-(3-piperazin-1-yl-phenylamino)-pyrimidin-4-yl]-1H-indole-3-carboxamide] | – |
| 1 to 10 | CN1CCCN(c2cccc(Nc3nccc(-n4cc(C(N)=O)c5ccccc54)n3)c2)CC1 [Compound 112, 1-{2-[3-(4-methyl-[1,4]homopiperazin-1-yl)-phenylamino]-pyrimidin-4-yl}-1H-indole-3-carboxamide] | – |
| < 1 | CN1CCN(c2cccc(Nc3nccc(-n4cc(C(N)=O)c5ccccc54)n3)c2)CC1 [Compound 113, 1-{2-[3-(4-methyl-piperazin-1-yl)-phenylamino]-pyrimidin-4-yl}-1H-indole-3-carboxamide] | – |
| 1 to 10 | CN1CCN(c2cc(F)cc(Nc3nccc(-n4cc(C(N)=O)c5ccccc54)n3)c2)CC1 [Compound 114, 1-{2-[3-fluoro-5-(4-methyl-piperazin-1-yl)-phenylamino]-pyrimidin-4-yl}-1H-indole-3-carboxamide] | – |
| 10 to 100 | CN1CCN(c2cc(Nc3ncc(F)c(-n4cc(C(N)=O)c5ccccc54)n3)ccc2F)CC1 [Compound 116, 1-{5-fluoro-2-[4-fluoro-3-(4-methyl-piperazin-1-yl)-phenylamino]-pyrimidin-4-yl}-1H-indole-3-carboxamide] | – |
| 10 to 100 | Cc1ccc(Nc2ncc(F)c(-n3cc(C(N)=O)c4ccccc43)n2)cc1N1CCN(C)CC1 [Compound 117, 1-{5-fluoro-2-[4-methyl-3-(4-methyl-piperazin-1-yl)-phenylamino]-pyrimidin-4-yl}-1H-indole-3-carboxamide] | – |
| 10 to 100 | Cc1ccc(Nc2ncc(Cl)c(-n3cc(C(N)=O)c4ccccc43)n2)cc1N1CCN(C)CC1 [Compound 121, 1-{5-chloro-2-[4-methyl-3-(4-methyl-piperazin-1-yl)-phenylamino]-pyrimidin-4-yl}-1H-indole-3-carboxamide] | – |
| 10 to 100 | COc1ccc(Nc2ncc(Cl)c(-n3cc(C(N)=O)c4ccccc43)n2)cc1N1CCN(C)CC1 [Compound 122, 1-{5-chloro-2-[4-methoxy-3-(4-methyl-piperazin-1-yl)-phenylamino]-pyrimidin-4-yl}-1H-indole-3-carboxamide] | – |
| 1 to 10 | COc1cnc(Nc2cccc(N3CCN(C)CC3)c2)nc1-n1cc(C(N)=O)c2ccccc21 [Compound 123, 1-{5-methoxy-2-[3-(4-methyl-piperazin-1-yl)-phenylamino]-pyrimidin-4-yl}-1H-indole-3-carboxamide] | – |
| > 1000 | COc1ccnc(Nc2nccc(-n3cc(C(N)=O)c4ccccc43)n2)c1 [Compound 131, 1-[2-(4-methoxy-pyridin-2-ylamino)-pyrimidin-4-yl]-1H-indole-3-carboxamide] | – |
| > 1000 | NC(=O)c1cn(-c2nc(Nc3ccc(N4CCNCC4)cn3)ncc2Cl)c2ccccc12 [Compound 134, 1-[5-chloro-2-(5-piperazin-1-yl-pyridin-2-ylamino)-pyrimidin-4-yl]-1H-indole-3-carboxamide] | – |
| 100 to 1000 | Cc1cc(Nc2nccc(-n3cc(C(N)=O)c4cccnc43)n2)ccc1N1CCN(C)CC1 [Compound 136] | – |
| 1 to 10 | NC(=O)c1cn(-c2nc(Nc3cccc(N4CCOCC4)c3)ncc2F)c2ccccc12 [Compound 137, 1-[5-fluoro-2-(3-morpholin-4-yl-phenylamino)-pyrimidin-4-yl]-1H-indole-3-carboxamide] | – |
